Laboratory results taken from ChEMBL document CHEMBL4673299, “A new sesquineolignan and four new neolignans isolated from the leaves of Piper betle, a traditional medicinal plant in Myanmar” (Bioorg Med Chem Lett, 2021).
pIC50: −log10 of the molar value.

tested on: RAW264.7; assay: Anti-inflammatory activity in murine RAW264.7 cells assessed as inhibition of LPS-induced NO production at 50 uM relative to control; format: functional; details: Mus musculus

Row | SMILES | inhibition at 50 µM [%]
1 | C=CCc1cc(O)c2c(c1)-c1cc(O)c(O)cc1C(C=C)O2 (centres undefined) | < 50
2 | C=CCc1cc(O)c(O)cc1-c1cc(OC)c(O)cc1CC=C | < 50
3 | C=CCc1cc(O)c2oc3cc(O)c(O)c(CC=C)c3c2c1 | < 50
4 | COc1cc(/C=C/CO)ccc1O [CONIFERYL ALCOHOL] | < 50
5 | COc1cc(/C=C/C=O)ccc1O [CONIFERYL ALDEHYDE] | < 50
6 | C=CCc1ccc(O)c(OC)c1 [EUGENOL] | < 50
7 | COC(=O)/C=C/c1ccc(O)cc1 [METHYL P-HYDROXYCINNAMATE] | < 50
8 | COc1cc(C=O)ccc1O [VANILLIN] | < 50

tested on: RAW264.7; assay: Anti-inflammatory activity in murine RAW264.7 cells assessed as inhibition of LPS-induced NO production; format: functional, cell-based; details: Mus musculus

Row | SMILES | pIC50
9 | C=CCc1cc(O)c(OC)cc1C/C=C/c1ccc(OC)c(O)c1 | 4.34
10 | C=CCc1ccc2c(c1)O[C@@H](c1ccc(O)c(O)c1)[C@H](Cc1cc(O)c(O)cc1CC=C)O2 | 5.01
11 | C=CCc1cc(O)c(O)cc1-c1cc(O)c(O)cc1CC=C | 4.39
12 | C=CCc1ccc(O)c(O)c1 [HYDROXYCHAVICOL] | 5.32
13 | CNC(=N)NCCC[C@H](N)C(=O)O [TILARGININE] | 4.47
14 | O=C/C=C/c1ccc(O)cc1 [p-HYDROXYCINNAMALDEHYDE] | 4.58
